Here are results for six compounds from patent publication US5843889A, “Glycopeptide antibiotic derivatives” (Eli Lilly and Company, priority 1997, dated 1998).

≈ marks a conversion by molar mass, not a printed value.

What all share (assay type): cell-based
One assay relates to Entercoccus faecalis 276. Briefly: MIC, standard broth micro-dilution assay. As for the experimental part: (§1) The formula I compounds have in vitro and in vivo activity against Gram-positive pathogenic bacteria. The MIC's were determined using a standard broth micro-dilution assay.
In general terms: Broth dilution looks for growth in wells or tubes with falling amounts of substance.

In assay [1] the test system is Entercoccus gallinarum 245. In words: MIC, standard broth micro-dilution assay. As for the experimental part:
as §1

The next assay relates to Pedicoccus acidilacti. In words: MIC, agar dilution on brain-heart infusion agar. The conditions noted are these: Pedioccccus acidilacti (mean of 10). A general note: In agar dilution the substance is mixed into plates at graded concentrations.
For the next assay, the system named is Pediococcus pentosaceus. Briefly: MIC, agar dilution on brain-heart infusion agar. The conditions noted are these: Pediococcus pentosaceus (mean of 2).
Another assay relates to Leuconostoc lactis. In words: MIC, agar dilution on brain-heart infusion agar. The conditions noted are these: Leuconostoc lactis (mean of 2).
Assay [2] deals with Staphylococcus aureus 491. Briefly: MIC, standard broth micro-dilution assay. As for the experimental part: The MIC's were determined using a standard broth micro-dilution assay.
Assay [3] deals with Entercoccus faecalis 2041. In words: MIC, standard broth micro-dilution assay. The procedure:
as §1

Assay [4] deals with Leuconostoc mesenteroides. Briefly: MIC, agar dilution on brain-heart infusion agar. The conditions noted are these: Leuconostoc mesenteroides (mean of 4).
In a further assay the test system is Lactobacillus confusus. In words: MIC, agar dilution on brain-heart infusion agar.

With `CNC(CC(C)C)C(=O)NC1C(=O)NC(CC(N)=O)C(=O)NC2C(=O)NC3C(=O)NC(C(=O)NC(C(=O)O)c4cc(O)cc(O)c4-c4cc3ccc4O)C(OC3CC(C)(N)C(O)C(C)O3)c3ccc(c(Cl)c3)Oc3cc2cc(c3OC2OC(CO)C(O)C(O)C2OC2CC(C)(NCc3ccc4ccccc4c3)C(O)C(C)O2)Oc2ccc(cc2Cl)C1O` (stereo not drawn) [Compound 1, 2-naphthylmethyl], the MIC in the assay on Entercoccus faecalis 276 is no more than 0.06 µg/mL; in assay [1], 4 µg/mL (≈ 2.31 µM); in the assay on Pedicoccus acidilacti it was 18 µg/mL (≈ 10.4 µM); in the assay on Pediococcus pentosaceus, 23 µg/mL (≈ 13.3 µM); in the assay on Leuconostoc lactis, 23 µg/mL (≈ 13.3 µM).
For the compound `C=CCCCCCCCCCNC1(C)CC(OC2C(Oc3c4cc5cc3Oc3ccc(cc3Cl)C(OC3CC(C)(N)C(O)C(C)O3)C3NC(=O)C(NC(=O)C5NC(=O)C(CC(N)=O)NC(=O)C(NC(=O)C(CC(C)C)NC)C(O)c5ccc(c(Cl)c5)O4)c4ccc(O)c(c4)-c4c(O)cc(O)cc4C(C(=O)O)NC3=O)OC(CO)C(O)C2O)OC(C)C1O` (stereo not drawn) [Compound 204, 10-undecenyl], the MIC (in assay [2]; in assay [3]; in the assay on Entercoccus faecalis 276) was no more than 0.06 µg/mL throughout.
Take `CNC(CC(C)C)C(=O)NC1C(=O)NC(CC(N)=O)C(=O)NC2C(=O)NC3C(=O)NC(C(=O)NC(C(=O)O)c4cc(O)cc(O)c4-c4cc3ccc4O)C(OC3CC(C)(N)C(O)C(C)O3)c3ccc(c(Cl)c3)Oc3cc2cc(c3OC2OC(CO)C(O)C(O)C2OC2CC(C)(NCc3cc(OCc4ccccc4)ccc3OC)C(O)C(C)O2)Oc2ccc(cc2Cl)C1O` (stereo not drawn) [Compound 51, 3-benzyloxy-6-methoxy benzyl]: the MIC in assay [3] was no more than 0.06 µg/mL; in the assay with Entercoccus faecalis 276, no more than 0.06 µg/mL; in assay [1], 1 µg/mL (≈ 0.55 µM); in the assay on Pedicoccus acidilacti, 87 µg/mL (≈ 47.8 µM); with Pediococcus pentosaceus it was 91 µg/mL (≈ 50 µM); in assay [4], 76 µg/mL (≈ 41.8 µM).
`CNC(CC(C)C)C(=O)NC1C(=O)NC(CC(N)=O)C(=O)NC2C(=O)NC3C(=O)NC(C(=O)NC(C(=O)O)c4cc(O)cc(O)c4-c4cc3ccc4O)C(OC3CC(C)(N)C(O)C(C)O3)c3ccc(c(Cl)c3)Oc3cc2cc(c3OC2OC(CO)C(O)C(O)C2OC2CC(C)(NCc3ccc(OCc4ccccc4)c(OC)c3)C(O)C(C)O2)Oc2ccc(cc2Cl)C1O` (stereo not drawn) [Compound 52, 4-benzyloxy-3-methoxybenzyl]: the MIC in [3] is 0.5 µg/mL (≈ 0.275 µM); in [1], 1 µg/mL (≈ 0.55 µM); in the assay with Pedicoccus acidilacti, 55 µg/mL (≈ 30.2 µM); in assay [4], 76 µg/mL (≈ 41.8 µM).
In the case of `CNC(CC(C)C)C(=O)NC1C(=O)NC(CC(N)=O)C(=O)NC2C(=O)NC3C(=O)NC(C(=O)NC(C(=O)O)c4cc(O)cc(O)c4-c4cc3ccc4O)C(OC3CC(C)(N)C(O)C(C)O3)c3ccc(c(Cl)c3)Oc3cc2cc(c3OC2OC(CO)C(O)C(O)C2OC2CC(C)(NCCCCCCCCOc3ccc(Oc4ccccc4)cc3)C(O)C(C)O2)Oc2ccc(cc2Cl)C1O` (stereo not drawn) [Compound 202], the MIC in [2] worked out at 8 µg/mL (≈ 4.24 µM); in assay [3], 1 µg/mL (≈ 0.529 µM); with Entercoccus faecalis 276, 4 µg/mL (≈ 2.12 µM); in assay [1], 8 µg/mL (≈ 4.24 µM).
Regarding `CNC(CC(C)C)C(=O)NC1C(=O)NC(CC(N)=O)C(=O)NC2C(=O)NC3C(=O)NC(C(=O)NC(C(=O)O)c4cc(O)cc(O)c4-c4cc3ccc4O)C(OC3CC(C)(N)C(O)C(C)O3)c3ccc(c(Cl)c3)Oc3cc2cc(c3OC2OC(CO)C(O)C(O)C2OC2CC(C)(NCc3cccc4c3oc3ccccc34)C(O)C(C)O2)Oc2ccc(cc2Cl)C1O` (stereo not drawn) [Compound 39, 4-[1-oxa]fluorenylmethyl], the MIC in assay [3] was no more than 0.06 µg/mL; with Entercoccus faecalis 276, no more than 0.06 µg/mL; in assay [1], no more than 0.06 µg/mL; against Pedicoccus acidilacti, 26 µg/mL (≈ 14.7 µM); against Pediococcus pentosaceus, 32 µg/mL (≈ 18.1 µM); against Leuconostoc lactis, 32 µg/mL (≈ 18.1 µM). Also, the MIC (in assay [4]; against Lactobacillus confusus) was 32 µg/mL (≈ 18.1 µM) in each case.

The MIC is the lowest concentration that inhibits growth of the organism. Read a low MIC as inhibition by little substance.
